Test results from the supplement of paper PMC7017272.
± gives the standard deviation of the averaged measurements.

What was measured:
Settings in all cases: treatment time: 3 days
[1] = system: UT-SCC-106A; experiment: maximal % inhibition of viability relative to DMSO; higher = stronger effect
Procedure, shortened: (§1)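 HPV-negative HNSCC cell lines were plated at 500 cells/well in 384-well plates, either on plastic, on wells coated with Matrigel or Myogel (500 µg/mL), or embedded in Matrigel or Myogel plus rat collagen I. Each compound was tested at five 10-fold concentrations over 3 days. Viability was measured by CellTiter-Glo 2.0 luminescence, and IC50, maximal inhibition and drug sensitivity score came from percent-inhibition dose–response curves fitted in the FIMM pipeline after normalisation to vehicle (0.1% DMSO) and cell-killing control wells.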

[2] = system: UT-SCC-40; experiment: as above
Procedure, shortened: as §1

[3] = system: UT-SCC-42A; experiment: as above
Procedure, shortened: as §1

[4] = system: UT-SCC-28; experiment: as above
Procedure, shortened: as §1

[5] = system: UT-SCC-73; experiment: as above
Procedure, shortened: as §1

[6] = system: UT-SCC-44; experiment: as above
Procedure, shortened: as §1

[7] = system: UT-SCC-24B; experiment: as above
Procedure, shortened: as §1

[8] = system: UT-SCC-8; experiment: as above
Procedure, shortened: as §1

[9] = system: UT-SCC-106A; experiment: relative IC50 (midpoint of the fitted curve; maximal inhibition may be below 50%); higher = less potent
Procedure, shortened: as §1

[10] = system: UT-SCC-14; experiment: as above
Procedure, shortened: as §1

[11] = system: UT-SCC-40; experiment: as above
Procedure, shortened: as §1

[12] = system: UT-SCC-42A; experiment: as above
Procedure, shortened: as §1

[13] = system: UT-SCC-42B; experiment: as above
Procedure, shortened: as §1

[14] = system: UT-SCC-81; experiment: as above
Procedure, shortened: as §1

[15] = system: UT-SCC-28; experiment: as above
Procedure, shortened: as §1

[16] = system: UT-SCC-73; experiment: as above
Procedure, shortened: as §1

[17] = system: UT-SCC-44; experiment: as above
Procedure, shortened: as §1

[18] = system: UT-SCC-24B; experiment: as above
Procedure, shortened: as §1

[19] = system: UT-SCC-8; experiment: as above
Procedure, shortened: as §1

[20] = culture condition: embedded in Matrigel
[21] = culture condition: embedded in Myogel + collagen I
[22] = culture condition: on top of Matrigel
[23] = culture condition: on top of Myogel
[24] = culture condition: plastic 2D (no matrix)

Cn1c(=O)n(-c2ccc(C(C)(C)C#N)cc2)c2c3cc(-c4cnc5ccccc5c4)ccc3ncc21 [Dactolisib]
maximal % inhibition of viability [1, 20]: 3.67 ± 0.31%
maximal % inhibition of viability [1, 21]: 7.53 ± 8.4%
maximal % inhibition of viability [1, 22]: 4.43 ± 3.8%
maximal % inhibition of viability [1, 23]: 5.1 ± 8.8%
maximal % inhibition of viability [1, 24]: 7.07 ± 3.2%
maximal % inhibition of viability [2, 20]: 18.2 ± 15%
maximal % inhibition of viability [2, 21]: 8.93 ± 7.8%
maximal % inhibition of viability [2, 22]: 9.4 ± 3.6%
maximal % inhibition of viability [2, 23]: 7.2 ± 4.8%
maximal % inhibition of viability [2, 24]: 2.4 ± 2.4%
maximal % inhibition of viability [3, 20]: 0.767 ± 1.3%
maximal % inhibition of viability [3, 21]: 6.03 ± 5.7%
maximal % inhibition of viability [3, 22]: 9.57 ± 4.9%
maximal % inhibition of viability [3, 23]: 4.37 ± 2.7%
maximal % inhibition of viability [3, 24]: 8.8 ± 3.1%
maximal % inhibition of viability [4, 20]: 19.7 ± 5%
maximal % inhibition of viability [4, 21]: 9.5 ± 12%
maximal % inhibition of viability [4, 22]: 13.3 ± 2.7%
maximal % inhibition of viability [4, 24]: 8.33 ± 5.8%
maximal % inhibition of viability [5, 20]: 11.8 ± 3.4%
maximal % inhibition of viability [5, 21]: 40.1 ± 8.9%
maximal % inhibition of viability [5, 22]: 9.33 ± 2.9%
maximal % inhibition of viability [5, 23]: 8.23 ± 2.8%
maximal % inhibition of viability [5, 24]: 1.63 ± 0.76%
maximal % inhibition of viability [6, 20]: 12.5 ± 9.3%
maximal % inhibition of viability [6, 21]: 13.2 ± 23%
maximal % inhibition of viability [6, 22]: 13.7 ± 2.4%
maximal % inhibition of viability [6, 23]: 12.8 ± 4.1%
maximal % inhibition of viability [6, 24]: 16.8 ± 4.5%
maximal % inhibition of viability [7, 20]: 77.4 ± 0.93%
maximal % inhibition of viability [7, 21]: 83.8 ± 1.4%
maximal % inhibition of viability [7, 22]: 78.6 ± 1.1%
maximal % inhibition of viability [7, 23]: 78.2 ± 1.9%
maximal % inhibition of viability [7, 24]: 76.2 ± 2.5%
maximal % inhibition of viability [8, 20]: 8.63 ± 5.4%
maximal % inhibition of viability [8, 21]: 18.3 ± 10%
maximal % inhibition of viability [8, 22]: 13.2 ± 5.7%
maximal % inhibition of viability [8, 23]: 9.7 ± 6.6%
maximal % inhibition of viability [8, 24]: 6.9 ± 6.6%
relative IC50 [9, 20]: > 989 nM
relative IC50 [9, 22]: > 989 nM
relative IC50 [9, 23]: > 989 nM
relative IC50 [10, 21]: > 989 nM
relative IC50 [10, 23]: > 989 nM
relative IC50 [11, 23]: > 989 nM
relative IC50 [11, 24]: > 989 nM
relative IC50 [12, 20]: > 989 nM
relative IC50 [12, 21]: > 989 nM
relative IC50 [12, 22]: > 989 nM
relative IC50 [12, 23]: > 989 nM
relative IC50 [12, 24]: > 989 nM
relative IC50 [13, 20]: > 989 nM
relative IC50 [13, 22]: > 989 nM
relative IC50 [13, 23]: > 989 nM
relative IC50 [13, 24]: > 989 nM
relative IC50 [14, 21]: > 989 nM
relative IC50 [14, 23]: > 989 nM
relative IC50 [14, 24]: > 989 nM
relative IC50 [15, 20]: > 989 nM
relative IC50 [15, 24]: > 989 nM
relative IC50 [16, 21]: > 989 nM
relative IC50 [16, 23]: > 989 nM
relative IC50 [16, 24]: > 989 nM
relative IC50 [17, 20]: > 989 nM
relative IC50 [17, 21]: > 989 nM
relative IC50 [18, 20]: 55.5 nM
relative IC50 [18, 21]: 22.1 nM
relative IC50 [18, 22]: 33.4 nM
relative IC50 [18, 23]: 31.3 nM
relative IC50 [18, 24]: 34.7 nM
relative IC50 [19, 20]: > 989 nM
relative IC50 [19, 24]: > 989 nM

COc1ncc(-c2ccc3nccc(-c4ccnnc4)c3c2)cc1NS(=O)(=O)c1ccc(F)cc1F [Omipalisib]
maximal % inhibition of viability [1, 20]: 79.7 ± 2.2%
maximal % inhibition of viability [1, 21]: 64.2 ± 3.3%
maximal % inhibition of viability [1, 22]: 81.2 ± 0.87%
maximal % inhibition of viability [1, 23]: 69.7 ± 2.8%
maximal % inhibition of viability [1, 24]: 81.53 ± 0.67%
maximal % inhibition of viability [2, 20]: 98.67 ± 0.4%
maximal % inhibition of viability [2, 21]: 89.9 ± 0.76%
maximal % inhibition of viability [2, 22]: 96.4 ± 1.7%
maximal % inhibition of viability [2, 23]: 85.8 ± 1.6%
maximal % inhibition of viability [2, 24]: 88.4 ± 2%
maximal % inhibition of viability [3, 20]: 97.27 ± 0.59%
maximal % inhibition of viability [3, 21]: 87.8 ± 1.7%
maximal % inhibition of viability [3, 22]: 96.13 ± 0.86%
maximal % inhibition of viability [3, 23]: 90.83 ± 0.76%
maximal % inhibition of viability [3, 24]: 92.7 ± 1.3%
maximal % inhibition of viability [4, 20]: 60.7 ± 5.8%
maximal % inhibition of viability [4, 21]: 83 ± 5.5%
maximal % inhibition of viability [4, 22]: 64.3 ± 4.8%
maximal % inhibition of viability [4, 24]: 60.8 ± 3.6%
maximal % inhibition of viability [5, 20]: 91.2 ± 0.27%
maximal % inhibition of viability [5, 21]: 89.6 ± 3.3%
maximal % inhibition of viability [5, 22]: 90.7 ± 1.4%
maximal % inhibition of viability [5, 23]: 90 ± 1.3%
maximal % inhibition of viability [5, 24]: 87.9 ± 1.4%
maximal % inhibition of viability [6, 20]: 52.5 ± 1.9%
maximal % inhibition of viability [6, 21]: 58.5 ± 5.7%
maximal % inhibition of viability [6, 22]: 54.8 ± 4.2%
maximal % inhibition of viability [6, 23]: 62.1 ± 5.8%
maximal % inhibition of viability [6, 24]: 56 ± 3.9%
maximal % inhibition of viability [7, 20]: 95.6 ± 0.79%
maximal % inhibition of viability [7, 21]: 96.6 ± 1.4%
maximal % inhibition of viability [7, 22]: 94.8 ± 1.3%
maximal % inhibition of viability [7, 23]: 92 ± 1.2%
maximal % inhibition of viability [7, 24]: 96.27 ± 0.55%
maximal % inhibition of viability [8, 20]: 99.57 ± 0.25%
maximal % inhibition of viability [8, 21]: 98.2 ± 0.56%
maximal % inhibition of viability [8, 22]: 98.5 ± 1.1%
maximal % inhibition of viability [8, 23]: 96.8 ± 1%
maximal % inhibition of viability [8, 24]: 97.87 ± 0.61%
relative IC50 [9, 20]: 4.51 nM
relative IC50 [9, 21]: 10.1 nM
relative IC50 [9, 22]: 5.7 nM
relative IC50 [9, 23]: 15.6 nM
relative IC50 [9, 24]: 5.69 nM
relative IC50 [10, 20]: 5.67 nM
relative IC50 [10, 22]: 8.29 nM
relative IC50 [10, 23]: 11.2 nM
relative IC50 [10, 24]: 6.77 nM
relative IC50 [11, 20]: 5.31 nM
relative IC50 [11, 21]: 9.86 nM
relative IC50 [11, 22]: 5.3 nM
relative IC50 [11, 23]: 12.9 nM
relative IC50 [11, 24]: 11.7 nM
relative IC50 [12, 20]: 15.6 nM
relative IC50 [12, 21]: 16.6 nM
relative IC50 [12, 22]: 13.2 nM
relative IC50 [12, 23]: 16.4 nM
relative IC50 [12, 24]: 11.5 nM
relative IC50 [13, 20]: 6.88 nM
relative IC50 [13, 22]: 19.3 nM
relative IC50 [13, 23]: 36.6 nM
relative IC50 [13, 24]: 31.4 nM
relative IC50 [14, 20]: 4 nM
relative IC50 [14, 21]: 8.83 nM
relative IC50 [14, 22]: 5.22 nM
relative IC50 [14, 23]: 9.49 nM
relative IC50 [14, 24]: 8.77 nM
relative IC50 [15, 20]: 2.99 nM
relative IC50 [15, 21]: 12.8 nM
relative IC50 [15, 22]: 5.19 nM
relative IC50 [15, 24]: 5.26 nM
relative IC50 [16, 20]: 6.73 nM
relative IC50 [16, 22]: 6.72 nM
relative IC50 [16, 23]: 9.27 nM
relative IC50 [16, 24]: 8.51 nM
relative IC50 [17, 21]: 10.4 nM
relative IC50 [17, 22]: 5.9 nM
relative IC50 [17, 23]: 9.17 nM
relative IC50 [17, 24]: 14.4 nM
relative IC50 [18, 20]: 11 nM
relative IC50 [18, 21]: 9.4 nM
relative IC50 [18, 22]: 11.6 nM
relative IC50 [18, 23]: 15.8 nM
relative IC50 [18, 24]: 12.8 nM
relative IC50 [19, 20]: 5.05 nM
relative IC50 [19, 22]: 7.5 nM
relative IC50 [19, 23]: 8.01 nM
relative IC50 [19, 24]: 6.97 nM
